Laboratory results taken from patent US12221423B1, “3-(3-fluorophenyl)-5-(4-methoxybenzylthio)-4-phenyl-4H-1,2,4-triazole as an antimicrobial compound” (KING FAISAL UNIVERSITY, priority 2023, dated 2025).

How the values were obtained:
Assay type in all cases: cell-based
Bacillus Cereus = experiment: Agar plate disc-diffusion, antibacterial inhibition zone; conditions: Bacillus Cereus (Gram positive), nutrient agar, 37° C., 48 hours
Method: (§1) The agar plate disc-diffusion method was applied. […] The discs were then placed onto the surface of agar plates (nutrient agar for bacteria and Sabouraud's dextrose agar for fungi) seeded with the test organism. Each plate contained 15 mL of the agar medium, previously seeded with 0.2 mL of the broth culture of each organism pregrown for 18 hours. The plates were incubated at 37° C. for 48 hours, and 72 hours for fungi. The inhibition zones were measured in mm. Discs impregnated with DMSO were used as a control, and its inhibition zone was subtracted from the tested compound actual inhibition zone.

Escherichia coli = experiment: as above; conditions: Escherichia coli (Gram negative), nutrient agar, 37° C., 48 hours
Method: as §1

Pseudomonas aeruginosa = experiment: as above; conditions: Pseudomonas aeruginosa (Gram negative), nutrient agar, 37° C., 48 hours
Method: as §1

Staphylococcus aureus = experiment: as above; conditions: Staphylococcus aureus (Gram positive), nutrient agar, 37° C., 48 hours
Method: as §1

Aspergillus flavus = experiment: Agar plate disc-diffusion, antifungal inhibition zone; conditions: Sabouraud's dextrose agar, 72 hours
Method: as §1

[1] = test system: Chrysosporium keratinophilum; experiment: as above; conditions: Sabouraud's dextrose agar, 72 hours
Method: as §1

[2] = A = concentration of comp. = 10,000 μL
[3] = B = concentration of comp. = 30,000 μL
[4] = C = concentration of comp. = 50,000 μL

SMILES: COc1ccc(CSc2nnc(-c3cccc(F)c3)n2-c2ccccc2)cc1 [III, 3-(3-fluorophenyl)-5-(4-methoxybenzylthio)-4-phenyl-4H-1,2,4-triazole]
- inhibition zone (Bacillus Cereus; [2]): 24 mm
- inhibition zone (Bacillus Cereus; [3]): 27 mm
- inhibition zone (Bacillus Cereus; [4]): 40 mm
- inhibition zone (Escherichia coli; [2]): 27 mm
- inhibition zone (Escherichia coli; [3]): 35 mm
- inhibition zone (Escherichia coli; [4]): 48 mm
- inhibition zone (Pseudomonas aeruginosa; [2]): 22 mm
- inhibition zone (Pseudomonas aeruginosa; [3]): 25 mm
- inhibition zone (Pseudomonas aeruginosa; [4]): 36 mm
- inhibition zone (Staphylococcus aureus; [2]): 16 mm
- inhibition zone (Staphylococcus aureus; [3]): 22 mm
- inhibition zone (Staphylococcus aureus; C = concentration of comp.): 34 mm
- inhibition zone (Aspergillus flavus; [2]): 19 mm
- inhibition zone (Aspergillus flavus; [3]): 22 mm
- inhibition zone (Aspergillus flavus; [4]): 31 mm
- inhibition zone [1, 2]: 26 mm
- inhibition zone [1, 3]: 28 mm
- inhibition zone [1, 4]: 42 mm
